Test results: ChEMBL document CHEMBL1201862, “PubChem BioAssay data set” (2004)
Active and inactive are the calls of the source.

Key:
[1] = tested on: HEK293; assay: inhibitors of LMP1-driven NF-kB reporter, dose response, cell-based, HEK293, luciferase, cherry-pick (AID 588343); type: functional; details: Homo sapiens
[2] = molecular target: T1, Caspase-3 (Homo sapiens, UniProt P42574); type: functional;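 also: Dose-response selectivity test against caspase-3 for candidate inhibitors of sentrin-specific proteases (SENPs)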
T1 sequence (P42574 whole entry): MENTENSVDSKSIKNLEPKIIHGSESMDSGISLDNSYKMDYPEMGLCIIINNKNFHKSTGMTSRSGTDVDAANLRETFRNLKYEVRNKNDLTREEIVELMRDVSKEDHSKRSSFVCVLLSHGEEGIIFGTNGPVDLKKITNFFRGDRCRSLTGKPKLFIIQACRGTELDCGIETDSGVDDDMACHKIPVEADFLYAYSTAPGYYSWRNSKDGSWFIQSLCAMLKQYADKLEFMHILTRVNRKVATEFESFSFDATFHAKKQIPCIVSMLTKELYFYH

[3] = molecular target: T2, Sentrin-specific protease 7 (Homo sapiens, UniProt Q9BQF6); type: functional;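 also: Luminescence-based dose-response confirmation of ultra-high-throughput screening hits, measuring inhibition of SENP7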
T2 sequence (Q9BQF6 whole entry): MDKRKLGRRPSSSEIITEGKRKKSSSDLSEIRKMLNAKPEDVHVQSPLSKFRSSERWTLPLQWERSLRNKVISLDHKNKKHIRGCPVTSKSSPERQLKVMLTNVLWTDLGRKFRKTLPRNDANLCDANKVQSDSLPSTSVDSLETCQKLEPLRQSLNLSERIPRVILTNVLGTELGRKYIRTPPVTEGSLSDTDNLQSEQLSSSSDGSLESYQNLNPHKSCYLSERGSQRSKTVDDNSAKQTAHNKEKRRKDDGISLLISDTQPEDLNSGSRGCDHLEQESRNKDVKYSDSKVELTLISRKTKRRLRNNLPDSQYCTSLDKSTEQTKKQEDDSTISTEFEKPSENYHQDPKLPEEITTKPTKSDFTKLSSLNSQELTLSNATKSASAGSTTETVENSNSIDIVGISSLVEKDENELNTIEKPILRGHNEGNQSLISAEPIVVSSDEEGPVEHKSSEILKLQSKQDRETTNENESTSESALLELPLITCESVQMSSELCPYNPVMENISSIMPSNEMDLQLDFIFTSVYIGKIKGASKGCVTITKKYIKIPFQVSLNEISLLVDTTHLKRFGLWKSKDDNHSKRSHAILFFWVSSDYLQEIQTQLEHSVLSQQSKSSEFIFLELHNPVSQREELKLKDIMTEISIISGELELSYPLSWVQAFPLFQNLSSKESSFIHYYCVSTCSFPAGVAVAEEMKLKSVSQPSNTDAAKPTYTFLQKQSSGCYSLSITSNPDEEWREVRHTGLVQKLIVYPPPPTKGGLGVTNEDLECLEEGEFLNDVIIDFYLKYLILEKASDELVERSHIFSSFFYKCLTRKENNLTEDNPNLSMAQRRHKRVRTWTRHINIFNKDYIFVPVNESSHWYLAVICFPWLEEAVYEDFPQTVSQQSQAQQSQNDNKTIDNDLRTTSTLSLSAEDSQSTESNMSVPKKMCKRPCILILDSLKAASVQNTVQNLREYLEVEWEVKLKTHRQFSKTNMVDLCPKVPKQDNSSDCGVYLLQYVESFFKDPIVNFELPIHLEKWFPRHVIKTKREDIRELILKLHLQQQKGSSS

[4] = molecular target: T3, Sentrin-specific protease 8 (Homo sapiens, UniProt Q96LD8); type: functional;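 also: luminescence read-out of SENP8 inhibition, dose-response confirmation following an ultra-high-throughput screen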
T3 sequence (Q96LD8 whole entry): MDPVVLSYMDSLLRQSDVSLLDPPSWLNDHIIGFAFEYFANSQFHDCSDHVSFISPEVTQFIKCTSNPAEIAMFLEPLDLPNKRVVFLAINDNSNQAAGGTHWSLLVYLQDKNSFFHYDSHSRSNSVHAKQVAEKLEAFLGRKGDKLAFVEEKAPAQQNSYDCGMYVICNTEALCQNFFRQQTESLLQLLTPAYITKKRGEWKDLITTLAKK

[5] = molecular target: T4, Sentrin-specific protease 6 (Homo sapiens, UniProt Q9GZR1); type: functional;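 also: Luminescence-based dose-response confirmatory assay of SENP6 inhibition, following up an ultra-high-throughput screen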
T4 sequence (Q9GZR1 whole entry): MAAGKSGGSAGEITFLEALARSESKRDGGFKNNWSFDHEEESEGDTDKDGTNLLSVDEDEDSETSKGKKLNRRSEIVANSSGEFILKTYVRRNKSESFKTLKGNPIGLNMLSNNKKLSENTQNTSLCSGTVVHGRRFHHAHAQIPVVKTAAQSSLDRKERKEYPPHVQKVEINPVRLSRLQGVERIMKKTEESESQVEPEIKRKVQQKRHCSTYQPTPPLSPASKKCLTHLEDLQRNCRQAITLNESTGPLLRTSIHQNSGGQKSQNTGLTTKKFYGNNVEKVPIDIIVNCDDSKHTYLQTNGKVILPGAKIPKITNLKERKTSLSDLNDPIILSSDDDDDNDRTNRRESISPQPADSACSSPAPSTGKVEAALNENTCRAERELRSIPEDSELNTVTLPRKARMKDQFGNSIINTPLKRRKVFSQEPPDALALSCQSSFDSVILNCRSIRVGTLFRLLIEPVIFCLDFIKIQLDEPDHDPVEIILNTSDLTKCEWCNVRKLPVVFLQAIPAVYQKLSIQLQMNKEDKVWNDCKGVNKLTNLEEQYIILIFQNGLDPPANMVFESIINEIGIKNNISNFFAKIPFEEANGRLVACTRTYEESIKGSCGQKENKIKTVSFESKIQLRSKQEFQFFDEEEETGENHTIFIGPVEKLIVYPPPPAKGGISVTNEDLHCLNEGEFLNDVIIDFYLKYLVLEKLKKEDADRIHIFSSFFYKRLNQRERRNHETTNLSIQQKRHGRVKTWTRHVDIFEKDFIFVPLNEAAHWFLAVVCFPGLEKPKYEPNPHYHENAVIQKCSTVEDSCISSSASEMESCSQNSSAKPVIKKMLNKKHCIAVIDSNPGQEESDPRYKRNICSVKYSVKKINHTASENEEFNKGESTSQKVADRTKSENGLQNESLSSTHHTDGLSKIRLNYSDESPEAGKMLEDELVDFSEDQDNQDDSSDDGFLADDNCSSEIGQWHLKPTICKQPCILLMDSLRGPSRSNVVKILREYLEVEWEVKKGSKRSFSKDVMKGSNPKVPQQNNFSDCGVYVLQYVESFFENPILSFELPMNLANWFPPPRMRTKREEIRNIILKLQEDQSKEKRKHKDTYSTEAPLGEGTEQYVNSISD

[6] = molecular target: T5, Histone-lysine N-methyltransferase NSD2 (Homo sapiens, UniProt O96028); type: biochemical
T5 sequence (O96028 whole entry): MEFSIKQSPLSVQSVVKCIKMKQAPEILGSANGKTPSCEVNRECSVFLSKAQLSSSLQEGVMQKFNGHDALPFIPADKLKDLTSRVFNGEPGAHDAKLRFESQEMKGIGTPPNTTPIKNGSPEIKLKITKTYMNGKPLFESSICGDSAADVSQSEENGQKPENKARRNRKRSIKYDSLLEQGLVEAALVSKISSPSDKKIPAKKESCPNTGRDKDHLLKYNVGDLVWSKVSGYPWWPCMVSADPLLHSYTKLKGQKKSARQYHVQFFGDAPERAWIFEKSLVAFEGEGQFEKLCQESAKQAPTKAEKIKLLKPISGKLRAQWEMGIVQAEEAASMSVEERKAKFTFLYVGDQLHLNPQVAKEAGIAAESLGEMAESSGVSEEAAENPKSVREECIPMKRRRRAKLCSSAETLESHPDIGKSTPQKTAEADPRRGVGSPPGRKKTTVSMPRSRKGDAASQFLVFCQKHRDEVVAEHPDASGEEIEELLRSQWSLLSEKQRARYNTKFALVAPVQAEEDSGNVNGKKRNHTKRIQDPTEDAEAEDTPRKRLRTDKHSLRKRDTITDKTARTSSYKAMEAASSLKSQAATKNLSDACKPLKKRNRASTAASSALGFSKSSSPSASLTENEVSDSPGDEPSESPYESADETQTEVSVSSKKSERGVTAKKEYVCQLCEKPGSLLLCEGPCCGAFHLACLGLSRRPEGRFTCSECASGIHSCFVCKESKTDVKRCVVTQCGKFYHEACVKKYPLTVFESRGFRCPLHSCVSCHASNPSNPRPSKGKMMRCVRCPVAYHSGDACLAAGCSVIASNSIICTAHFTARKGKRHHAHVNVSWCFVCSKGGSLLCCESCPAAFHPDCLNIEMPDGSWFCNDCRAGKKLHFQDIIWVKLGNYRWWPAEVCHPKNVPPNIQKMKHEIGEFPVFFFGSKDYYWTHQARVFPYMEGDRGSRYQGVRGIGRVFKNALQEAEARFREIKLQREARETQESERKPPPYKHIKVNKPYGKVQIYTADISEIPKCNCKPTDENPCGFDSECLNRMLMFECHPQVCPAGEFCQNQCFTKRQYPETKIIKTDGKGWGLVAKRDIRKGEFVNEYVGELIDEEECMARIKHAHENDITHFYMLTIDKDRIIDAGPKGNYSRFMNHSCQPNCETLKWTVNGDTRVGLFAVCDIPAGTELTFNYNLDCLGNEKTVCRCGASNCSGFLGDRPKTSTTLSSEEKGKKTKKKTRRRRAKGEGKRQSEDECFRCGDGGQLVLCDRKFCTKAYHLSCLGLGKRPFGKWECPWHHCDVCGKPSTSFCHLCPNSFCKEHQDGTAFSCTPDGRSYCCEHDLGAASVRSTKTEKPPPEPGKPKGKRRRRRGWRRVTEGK

[7] = tested on: Vero; assay: Vero cell cytotoxicity, cytotoxicity control for flavivirus capping enzyme inhibitors (AID 588742); type: functional; details: Chlorocebus sabaeus
[8] = molecular target: Genome polyprotein (dengue virus type 2, UniProt P29990); assay: Dengue-2 NS5 methyltransferase inhibitors, primary screen, biochemical, confirmation dose response (AID 588689); type: functional
Genome polyprotein, sequence (P29990 2492-3391 limits assumed): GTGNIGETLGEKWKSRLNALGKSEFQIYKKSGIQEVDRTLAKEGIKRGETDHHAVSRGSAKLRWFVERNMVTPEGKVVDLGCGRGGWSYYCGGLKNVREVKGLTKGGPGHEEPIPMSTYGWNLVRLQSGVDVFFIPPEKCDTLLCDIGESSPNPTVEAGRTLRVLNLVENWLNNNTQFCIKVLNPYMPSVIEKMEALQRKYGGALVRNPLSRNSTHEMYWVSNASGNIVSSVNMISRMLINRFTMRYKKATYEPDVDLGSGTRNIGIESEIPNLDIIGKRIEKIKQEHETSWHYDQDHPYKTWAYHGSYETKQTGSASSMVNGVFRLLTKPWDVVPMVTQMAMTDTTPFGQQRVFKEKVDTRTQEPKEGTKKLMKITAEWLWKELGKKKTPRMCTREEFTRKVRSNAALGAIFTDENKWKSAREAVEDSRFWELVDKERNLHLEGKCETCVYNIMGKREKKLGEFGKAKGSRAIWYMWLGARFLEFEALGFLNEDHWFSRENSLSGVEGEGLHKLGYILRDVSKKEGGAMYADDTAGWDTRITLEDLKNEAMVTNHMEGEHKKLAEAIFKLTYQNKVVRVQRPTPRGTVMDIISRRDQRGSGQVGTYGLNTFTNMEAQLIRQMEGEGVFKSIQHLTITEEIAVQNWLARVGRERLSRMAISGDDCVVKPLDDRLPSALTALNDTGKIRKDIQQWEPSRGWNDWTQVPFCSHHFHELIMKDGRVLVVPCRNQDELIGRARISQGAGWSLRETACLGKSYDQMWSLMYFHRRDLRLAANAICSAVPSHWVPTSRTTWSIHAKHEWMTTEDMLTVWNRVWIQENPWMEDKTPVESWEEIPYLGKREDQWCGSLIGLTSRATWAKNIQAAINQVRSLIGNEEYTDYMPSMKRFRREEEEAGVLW

[9] = molecular target: T6, Cytochrome P450 1A2 (Homo sapiens, UniProt P05177);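 also: PubChem cytochrome P450 panel assay, CYP1A2 panel member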
T6 sequence (P05177 whole entry): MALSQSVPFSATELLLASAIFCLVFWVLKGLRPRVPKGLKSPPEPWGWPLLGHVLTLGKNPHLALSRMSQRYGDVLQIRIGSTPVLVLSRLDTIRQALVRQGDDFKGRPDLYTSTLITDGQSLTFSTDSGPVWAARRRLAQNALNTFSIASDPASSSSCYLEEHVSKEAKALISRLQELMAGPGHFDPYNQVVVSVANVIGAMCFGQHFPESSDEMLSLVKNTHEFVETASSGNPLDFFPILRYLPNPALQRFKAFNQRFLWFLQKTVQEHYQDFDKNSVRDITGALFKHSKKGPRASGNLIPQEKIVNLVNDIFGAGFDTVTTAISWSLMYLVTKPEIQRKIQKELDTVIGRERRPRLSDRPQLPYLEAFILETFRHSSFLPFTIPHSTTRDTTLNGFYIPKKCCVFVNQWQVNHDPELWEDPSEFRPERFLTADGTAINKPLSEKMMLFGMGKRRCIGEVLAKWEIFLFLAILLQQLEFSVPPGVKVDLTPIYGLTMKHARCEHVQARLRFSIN

[10] = tested on: Vero; assay: cells; type: functional; details: Chlorocebus sabaeus
[11] = tested on: Streptococcus; assay: Group A Streptococcus viability loss, dose response, counter-screen for streptokinase expression inhibitor project, luminescence, BacTiterGlo (AID 1915); type: functional, organism-based;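 also: potency for reduction of bacterial viability or growth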
[12] = tested on: Streptococcus sp. 'group A'; assay: growth inhibition of control SK(-) GAS strain, dose response, counter-screen for streptokinase expression inhibitor project, luminescence, kanamycin, BacTiterGlo, confirmation (AID 1900); type: functional, organism-based
[13] = Luminescence Cell-Based Dose Response HTS to Identify Inhibitors of 5'UTR Stem-Loop Driven Prion Protein mRNA Translation in H4 Neuroglioblastoma Cells. [Related pubchem assays: 1827 (Project Summary), 1813 (Primary HTS)]; type: functional
[14] = inhibitors of firefly luciferase expression or activity, dose response, H4 neuroglioma cells, luminescence (AID 1990); type: functional, cell-based
[15] = molecular target: Cytochrome P450 2C9 (Homo sapiens, UniProt P11712)
Cytochrome P450 2C9, sequence (P11712 whole entry): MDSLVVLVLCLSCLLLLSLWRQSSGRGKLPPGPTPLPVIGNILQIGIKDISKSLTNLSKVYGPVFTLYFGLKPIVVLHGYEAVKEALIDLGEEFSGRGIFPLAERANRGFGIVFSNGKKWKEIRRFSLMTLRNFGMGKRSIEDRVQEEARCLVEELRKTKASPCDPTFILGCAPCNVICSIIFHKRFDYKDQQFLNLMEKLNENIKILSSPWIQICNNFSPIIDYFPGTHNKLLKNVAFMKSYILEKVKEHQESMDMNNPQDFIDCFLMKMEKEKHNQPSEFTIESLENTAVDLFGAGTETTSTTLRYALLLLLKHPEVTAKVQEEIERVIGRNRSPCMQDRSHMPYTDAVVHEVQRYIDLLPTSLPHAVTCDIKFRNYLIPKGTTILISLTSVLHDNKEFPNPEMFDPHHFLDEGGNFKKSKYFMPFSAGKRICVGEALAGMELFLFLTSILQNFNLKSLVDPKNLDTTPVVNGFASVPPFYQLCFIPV

[16] = molecular target: Cytochrome P450 3A4 (Homo sapiens, UniProt P08684);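 also: CYP3A4 tested as one member of a cytochrome P450 panel screen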
Cytochrome P450 3A4, sequence (P08684 whole entry): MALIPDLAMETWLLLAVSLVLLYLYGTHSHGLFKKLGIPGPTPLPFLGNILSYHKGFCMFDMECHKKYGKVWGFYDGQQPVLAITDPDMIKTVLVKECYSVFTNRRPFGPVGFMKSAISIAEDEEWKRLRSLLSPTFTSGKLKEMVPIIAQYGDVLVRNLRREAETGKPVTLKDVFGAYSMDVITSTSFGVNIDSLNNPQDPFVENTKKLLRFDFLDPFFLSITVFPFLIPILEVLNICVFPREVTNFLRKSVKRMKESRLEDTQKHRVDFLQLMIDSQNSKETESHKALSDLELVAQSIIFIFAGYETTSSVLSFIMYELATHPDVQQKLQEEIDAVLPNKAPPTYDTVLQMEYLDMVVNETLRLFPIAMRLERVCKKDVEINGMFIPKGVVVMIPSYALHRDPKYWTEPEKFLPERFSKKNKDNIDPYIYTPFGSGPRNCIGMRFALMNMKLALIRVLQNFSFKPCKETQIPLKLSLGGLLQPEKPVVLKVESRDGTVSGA

[17] = molecular target: Cytochrome P450 2C19 (Homo sapiens, UniProt P33261); assay: Cytochrome panel assay with activity outcomes. Panel member name: p450-cyp2c19 Compounds with AC50 equal or less than 10 uM are considered active; type: functional; details: read-out: AC50
Cytochrome P450 2C19, sequence (P33261 whole entry): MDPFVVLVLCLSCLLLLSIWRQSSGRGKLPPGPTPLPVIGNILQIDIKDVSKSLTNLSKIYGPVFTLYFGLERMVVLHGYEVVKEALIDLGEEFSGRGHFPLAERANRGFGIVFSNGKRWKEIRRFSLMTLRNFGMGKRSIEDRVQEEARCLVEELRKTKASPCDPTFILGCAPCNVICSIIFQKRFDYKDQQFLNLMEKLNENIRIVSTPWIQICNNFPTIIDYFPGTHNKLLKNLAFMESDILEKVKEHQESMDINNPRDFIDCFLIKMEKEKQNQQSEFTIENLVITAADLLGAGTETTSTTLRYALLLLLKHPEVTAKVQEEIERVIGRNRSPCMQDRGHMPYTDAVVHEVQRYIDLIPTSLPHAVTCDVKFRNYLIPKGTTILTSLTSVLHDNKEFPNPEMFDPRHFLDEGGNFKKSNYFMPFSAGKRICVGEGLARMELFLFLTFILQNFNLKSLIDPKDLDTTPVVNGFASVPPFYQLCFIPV

## NC(=O)c1ccccc1N/C=C/C(=O)c1cccs1
[1]
  AC50: 22.5 µM (active)

## CCOc1ccc(/N=C/c2c(O)oc3ccccc3c2=O)cc1
[2]
  IC50: 32.8 µM (active)
[3]
  IC50: 6.32 µM (active)
[4]
  IC50: > 100 µM (inactive)
[5]
  IC50: 26.2 µM (active)

## Cc1ccc(S(=O)(=O)/N=C2\C=C(NS(=O)(=O)c3ccccc3)C(=O)c3ccccc32)cc1
[6]
  AC50: 2.18 µM (active)
[7]
  CC50: > 40 µM (active)
[8]
  IC50: 35.8 µM (active)

## Cc1sc2c(c1C)C(c1ccc(C(C)(C)C)cc1)=NCC(=O)N2CC(=O)Nc1nccs1
[9]
  AC50: 22.4 µM (inconclusive)
[7]
  CC50: > 40 µM (active)

## CC(=O)Nc1ccc(C=NNc2nnc(NN=Cc3ccc(NC(C)=O)cc3)c3ccccc23)cc1
[1]
  AC50: 0.932 µM (active)

## Cc1n[nH]c(O)c1C(c1c(C)n[nH]c1O)c1cn(Cc2ccc(Cl)c(Cl)c2)c2ccccc12
[10]
  CC50: 10.1 µM (active)
[11]
  EC50: 77.9 µM (active)
[7]
  CC50: 5.47 µM (active)
[12]
  EC50: 4.35 µM (active)
[13]
  EC50: 0.26 µM (active)
[14]
  EC50: 13.6 µM (active)

## NC(=S)N=Nc1c(O)cc(O)c2nc(O)ccc12
[7]
  CC50: > 40 µM (active)
[8]
  IC50: 20 µM (active)

## O=C(Nc1nc2ccc(F)cc2s1)C1=COCCO1
[1]
  AC50: 2.38 µM (active)

## CCc1ccc(C(=O)COC(=O)c2cccc(N3C(=O)c4c(C)nc5ccccc5c4C3=O)c2)cc1
[15]
  AC50: 3.16 µM (inconclusive)
[1]
  AC50: 16.7 µM (active)
[16]
  AC50: 22.4 µM (inconclusive)
[17]
  AC50: 7.08 µM (inconclusive)

## COc1ccc(N2Cc3ccccc3C2=O)cc1
[1]
  AC50: 12.5 µM (active)

## COc1ccc(NC(=O)c2ccc(OCC3CCCO3)cc2)cc1Cl (centres undefined)
[2]
  IC50: 15.6 µM (active)
[3]
  IC50: 5.56 µM (active)
[4]
  IC50: > 100 µM (inactive)
[5]
  IC50: > 100 µM (inactive)
